This is an account of results in US20110150980A1, “CGRP ANALOG” (VasoGenix Pharmaceuticals, Inc., priority 2009, published 2011).

One data set has as its system patients. As to conditions: cited from earlier work.
The target in data set [1] is T1, CRLR/RAMP1 receptor (Homo sapiens, UniProt O60894+Q16602).
T1 construct: All of the full-length cDNAs were subcloned into pcDNA3.1 expression vectors; expressed in transfected cells; host or cells: HEK293T, transient calcium phosphate transfection, pcDNA3.1 vectors
T1 sequence (Q16602 23-461): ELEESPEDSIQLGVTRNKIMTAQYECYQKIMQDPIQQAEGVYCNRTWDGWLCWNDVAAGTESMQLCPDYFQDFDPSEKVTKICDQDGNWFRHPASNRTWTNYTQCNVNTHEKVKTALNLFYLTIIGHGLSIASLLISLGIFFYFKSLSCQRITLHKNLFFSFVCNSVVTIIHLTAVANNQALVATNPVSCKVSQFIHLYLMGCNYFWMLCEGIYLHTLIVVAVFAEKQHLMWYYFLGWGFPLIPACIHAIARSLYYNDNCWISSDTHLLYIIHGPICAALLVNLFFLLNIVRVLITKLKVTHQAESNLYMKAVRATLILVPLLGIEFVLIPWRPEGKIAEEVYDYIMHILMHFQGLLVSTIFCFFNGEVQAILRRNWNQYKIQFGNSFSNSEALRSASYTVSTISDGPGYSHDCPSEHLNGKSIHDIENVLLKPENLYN
T1 sequence (O60894 27-148): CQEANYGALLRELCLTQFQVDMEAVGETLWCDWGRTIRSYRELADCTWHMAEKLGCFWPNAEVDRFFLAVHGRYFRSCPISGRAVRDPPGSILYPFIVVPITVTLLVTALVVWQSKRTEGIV
As to the kind of experiment: CRE-luciferase assay in HEK293T cells transfected with CRLR and RAMP1. It is filed as cell-based. As to conditions: for activity and potency in binding to the CGRP receptor, CRE-Luciferase assay: compared to h-α-CGRP and h-β-CGRP as controls. An excerpt:
The expression vectors for RAMP1, RAMP2, RAMP3, CRLR, CRE-Luc and SRE-Luc were constructed as previously described (McLatchie L. M., et al. (1998) Nature 393:333-339). Human CRLR, RAMP1, and RAMP2 full-length cDNAs were cloned by RT-PCR using RNA obtained from HEK293T cells and CRLR, RAMP1, and RAMP2-specific primers. Human RAMP3 full-length cDNAs were cloned by RT-PCR using RNA from human kidney and RAMP3 specific primers. All of the full-length cDNAs were subcloned into pcDNA3.1 expression vectors.
Human embryonic kidney 293T cells (HEK293T) were maintained in Dulbecco's modified Eagle's medium supplemented with 10% fetal calf serum, 2 mM glutamine, […], at 37° C. in a humidified atmosphere of 95% air and 5% CO2. Transient transfections were performed using calcium phosphate co-precipitation (Mellon P. L., et al. (1981) Cell 27:279-288). Cells in six-well plates or 100-mm Petri dishes were grown to 70% confluence and transfected with 0.1 μg of DNA for CRLR, 0.05 μg for RAMPs or 1 μg for CRE-Luc and SRE-Luc per cm^2. The total amount of DNA transfected in each condition was kept constant by adding empty pcDNA3.1 vector when needed. Twenty hours after transfection, the medium was replaced with fresh medium containing 5 mM sodium butyrate for 24 h and then replaced for an additional 24 h with fresh medium without sodium butyrate. All of the experiments were performed 72 h after transfection to allow correct glycosylation and cell surface targeting of CRLR and RAMPs.
After exposure to various concentrations of CGRP or the CGRP analogs, the cells were lysed and assayed for CRE- or SRE-luciferase activity using the luciferase assay system (Promega), and luminescence was measured using a 96-well luminometer.
The mechanism of action for CGRP at the CRLR/RAMP1 receptor is known to up-regulate cAMP through the gs pathway, and to a lesser extent [Ca^2+] through the gq pathway. […] It is the cAMP pathway that is the primary mechanism of action of CGRP for vasodilation, cardio/renoprotection and immunomodulation.

Data set [2] deals with sedated Non Human Primate. The data set can be described thus: IV infusion in the sedated Non Human Primate: blood pressure and heart rate (Example 1). It is filed as in vivo. The conditions noted are these: at the 28 ng dose.
In data set [3] the target is CRLR/RAMP1 receptor (human, UniProt Q16602 23-461; O60894 27-148). As to the kind of experiment: cell-based or functional assay.
Chain of CRLR/RAMP1 receptor (human, UniProt Q16602 23-461; O60894 27-148) (Q16602 23-461, chain 1 of 2): as the sequence (Q16602 23-461) above
Chain of CRLR/RAMP1 receptor (human, UniProt Q16602 23-461; O60894 27-148) (O60894 27-148, chain 2 of 2): as the sequence (O60894 27-148) above
Where [4] appears, read: Anand et al.: short-term IV infusions (10 or 20 minutes) at 0.8, 3.2, or 16 ng/kg/min.
The mark [5] stands for this setting: Sekhar et al.: 8 ng/kg/min by IV infusion for 8 hours.
The mark [6] stands for this setting: Stephenson et al.: 600 ng/min, 2-8 hour infusions for two consecutive days.

Like-named read-outs stand apart in the source and are kept apart here. Bridges are numbered along the chain shown (N, C = ends). Where no end group is shown, it is not given here.

As for CGRP, in the data set with patients (setting [4]), the hemodynamic effects entry was “beneficial hemodynamic effects such as decreased systemic vascular resistance and increase in cardiac output”; the tachycardia result is given as “no tachycardia observed”. Also, the “renal blood flow and glomerular filtration” value in the data set with patients (Sekhar et al.: 8 ng/kg/min by IV infusion for 8 hours, during treatment) is “increased”. Besides, in the data set with patients (setting [5]), the hemodynamic effects entry is “beneficial hemodynamic effects such as decreased pulmonary and systemic arterial pressure, decreased vascular resistance and increased cardiac output”; the “time after stopping infusion within which hemodynamic effects were lost” value is no more than 30 min. Also, in the data set on patients (setting [6]), the “side effects of pulsed therapy” value was “unfavorable side effects of tachycardia and neurohumoral response were also observed”; the “tolerability and hemodynamic functions, pulsed therapy” value is “well tolerated and was observed to improve hemodynamic functions such as left ventricular function”. In addition, in the data set on patients (Stephenson et al.: 600 ng/min, 48-hour continuous IV-infusion), the “tolerability of continuous infusion therapy” value is “infusion was discontinued after 28 hours in 3 out of the 6 patients due to nausea, diarrhea, and/or severe facial flushing”.

“Cyc-ACDTATCVTHRLADLLSRSGGVVKSNFVPTNVGSKAF-NH2 (disulfide 2-7 (inferred)) [Peptide IX]”: the “potency in CRE-Luciferase assay” value with CRLR/RAMP1 receptor [1] (at a concentration of 10^−10 molar) is “more potent”. In the data set with CRLR/RAMP1 receptor [1], the “activity and potency in binding to the CGRP receptor, CRE-Luciferase assay” value was “as equally active and potent as h-α-CGRP and h-β-CGRP”. Also, the “Heart rate (HR) effect” value in data set [2] is “increased heart rate but less than CGRP”.

On to “Cyc-ACDTATCVTHRLAGLLSRSGGVVKSNFVPTNVGSKAF-NH2 (disulfide 2-7 (inferred)) [Peptide III]”, for which, in the data set with CRLR/RAMP1 receptor [1], the “activity and potency in binding to the CGRP receptor, CRE-Luciferase assay” value is “as equally active and potent as h-α-CGRP and h-β-CGRP”. The “Heart rate (HR) effect” value in data set [2] is given as “increased heart rate but less than CGRP”.

B1: Peptide III, [Ser25] h-α-CGRP (peptide)
peptide: ACDTATCVTHRLAGLLSRSGGVVKSNFVPTNVGSKAF-NH2
modifications: disulfide 2-7 (inferred); also: acetate salt
As to B1, the “CRE-Luciferase assay: concentration at which receptors were saturated” value (from here on “CRE-Luciferase assay: concentration”) with CRLR/RAMP1 receptor [3] amounted to 100 nM.

B2: Peptide IX, [Asp14, Ser25] h-α-CGRP (peptide)
peptide: ACDTATCVTHRLADLLSRSGGVVKSNFVPTNVGSKAF-NH2
modifications: disulfide 2-7 (inferred); also: acetate salt
Consider B2, for which, in the data set with CRLR/RAMP1 receptor [3], the “CRE-Luciferase activity at 10^-10 molar, fold over analogs III and V, h-α-CGRP and h-β-CGRP” value came to 1.5 fold; the “CRE-Luciferase assay: concentration” value was 100 nM.

B3: Peptide V, [Asn3, Ser25] h-α-CGRP (peptide)
peptide: ACNTATCVTHRLAGLLSRSGGVVKSNFVPTNVGSKAF-NH2
modifications: disulfide 2-7 (inferred); also: acetate salt
Consider B3, for which the “CRE-Luciferase assay: concentration” value with CRLR/RAMP1 receptor [3] was found to be 100 nM.
